Data set [1] addresses GLP-1R (Homo sapiens, UniProt P43220). Briefly: GLP-1R Activation - cAMP Assay. Type of data set: cell-based. The note with it: cAMP increase in CHO cells stably expressing GLP-1R; each compound run on one of the two cAMP assays (Assay 1 or Assay 2, not specified). The gist of the method:
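cAMP rise read by HTRF after 30 min agonist exposure (10-point titration, 37 °C) in HBSS/20 mM Hepes/0.1% BSA, following 1 h pre-incubation. Cells: stable GLP-1R CHO line, 1,000/well, seeded overnight. Sigmoidal fit of response vs log concentration gives EC50.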

The nature of data set [2]: Pharmacokinetic (PK) studies, in vivo monkey oral PK. The note with it: Cynomolgus monkey; for Tmax / AUC(0-t) / Cmax / bioavailability: plasma; for AUC(0-t): read-out: AUC0-24 (Arbitrary units); for Cmax: read-out: Cmax (Arbitrary unit); for bioavailability: read-out: F % (oral bioavailability). Details: species or system Cynomolgus monkeys. How it is done: Pharmacokinetic (PK) Studies Test Articles:
Examples 60, 115, 117, and 119 were tested along with comparative examples CE-1 and CE-2.
Dose Formulation Preparation
Compounds CE-2, Example 60, Example 115, Example 117, and Example 119 were combined with a mixture of 10% NMP (v:v) and 90% PEG300 (v:v), and the mixture was stirred until a homogeneous solution was obtained.
Compound CE-1 was combined with a mixture of 15% 2-hydroxypropyl-β-cyclodextrin (w:v) and 85% Milli-Q water (v:v), and the mixture was stirred until a homogeneous solution was obtained.
Young adult non-naive Cynomolgus monkeys with weight about 2.5-5 kg (n=1-3/test article/route) were fasted overnight and then dosed with either CE-1, CE2, Example 60, Example 115, Example 117 or Example 119. Food was supplied approximately 4 hours post dose and animals were provided with free access to water all the time. Animals were restrained at designated time points for blood sampling. Approximately 500 μL of blood samples was taken via cephalic or saphenous vein into EDTA-K2 tubes. For oral administration (PO): blood samples were generally collected pre-dose, and at 15 min, 30 min, 1 hr., 2 hr., 4 hr., 8 hr., 12 hr., and 24 hr. time points after dosing. Blood was be maintained on wet ice, in chilled cryoracks, or at approximately 5° C. prior to centrifugation to obtain plasma. Centrifugation was conducted within 1 hour of collection. Plasma (approximately 200 μL) was placed into a micronic tubes containing 4 μL of formic acid (the final concentration of formic acid in plasma was approximately 2%) and samples were vortex mixed. Samples were maintained on dry ice prior to storage at approximately −70° C.
LC-MS/MS assays were utilized to quantify the concentration of the test articles in plasma as follows.
50 μL plasma sample was mixed with 350 μL of ACN combined with an internal standard. The mixture was then vortexed for about 1-5 min, and centrifuged at about 4,000-5,800 rpm for about […]. An aliquot of 1 μL supernatant was used for LC-MS/MS analysis.
MS conditions: A Sciex API 6500 equipped with electrospray ionization in the positive ion selected reaction monitoring mode was used for detection.
HPLC conditions • Mobile Phase A: H2O-0.11% Formic Acid • Mobile Phase B: ACN-0.1% Formic Acid
• Column: Phenomenex Kinetex XBCl8 (2.1×50 mm, 2.6 μm) with a flow rate of 1.20 mL/min • Column temperature: 60° C. • Retention time: approximately between 0.85 to 1.05 • min Pharmacokinetics (PK) Parameters
Pharmacokinetics parameters, including area under the curve (AUC0-24), maximum plasma concentration (Cmax), time to reach maximum plasma concentration (Tmax), oral bioavailability (F %), etc., were calculated using Dotmatics software in non-compartmental model.

Molecules are shown by their SMILES. Like-named read-outs stand apart in the source and are kept apart here.

GLP-1R, sequence (P43220 24-463): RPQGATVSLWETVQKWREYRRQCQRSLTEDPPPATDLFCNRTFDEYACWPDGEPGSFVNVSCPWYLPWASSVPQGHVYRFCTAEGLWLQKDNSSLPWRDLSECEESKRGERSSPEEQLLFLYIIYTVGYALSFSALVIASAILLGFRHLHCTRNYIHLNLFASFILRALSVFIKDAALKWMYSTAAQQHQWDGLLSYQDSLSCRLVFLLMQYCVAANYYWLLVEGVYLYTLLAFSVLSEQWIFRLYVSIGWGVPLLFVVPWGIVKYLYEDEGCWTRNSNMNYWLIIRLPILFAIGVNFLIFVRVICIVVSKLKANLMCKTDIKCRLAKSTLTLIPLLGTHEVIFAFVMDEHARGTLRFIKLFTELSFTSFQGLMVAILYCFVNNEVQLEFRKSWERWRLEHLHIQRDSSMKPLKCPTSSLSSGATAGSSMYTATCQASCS

`CC1(C)COC[C@H]1n1c(Cc2cc(F)c(-c3cccc(OCc4ccc(C#N)cc4F)n3)cc2F)nc2ccc(C(=O)O)cc21` [Example 60] gave an EC50 in data set [1] of 40 pM. Also, in data set [2] (single oral dose 2 mg/kg), the Tmax came to 1.5 ± 0.9 h, the AUC(0-t) is 5.57 ± 2.19 µM·h, the Cmax is 385 ± 82 nM and the bioavailability was found to be 47.6 ± 12.3%.
The like results for `CC1(C)COC[C@H]1n1c(Cc2cc(F)c(-c3cccc(OCc4ccc(C#N)cc4)n3)cc2F)nc2ccc(C(=O)O)cc21` [Example 119, (S)-2-(4-(6-((4-cyanobenzyl)oxy)pyridin-2-yl)-2,5-difluorobenzyl)-1-(4,4-dimethyltetrahydrofuran-3-yl)-benzimidazole-6-carboxylic Acid] were, in that order, 31 pM, 1.7 ± 0.6 h, 19.4 ± 3.31 µM·h, 1190 ± 137 nM and 47.6 ± 8.1%.
`N#Cc1ccc(COc2cccc(C3CCN(Cc4nc5ccc(C(=O)O)cc5n4C[C@@H]4CCO4)CC3)n2)c(F)c1` [CE-1, (S)-2-((4-(6-((4-cyano-2-fluorobenzyl)oxy)pyridin-2-yl)piperidin-1-yl)methyl)-1-(oxetan-2-ylmethyl)-1H-benzo[d]imidazole-6-carboxylic acid, reference compound] registered a plasma concentrations in data set [2] (over a period of 12 h after a single oral dose of 1 mg/kg) of less than 10 nM. Besides, in data set [2] (single oral dose 1 mg/kg), the Tmax is 2.2 ± 1.8 h, the AUC(0-t) came out at 0.0477 ± 0.0133 µM·h, the Cmax was 4.5 ± 0.8 nM and the bioavailability came out at 2.5%. For the same molecule, the “plasma exposure after the 12 h period” value in data set [2] (single oral dose of 1 mg/kg, after 12 h) is recorded as “below the detection limit”.
As to `N#Cc1ccc(COc2cccc(-c3cc(F)c(Cc4nc5ccc(C(=O)O)cc5n4C[C@@H]4CCO4)cc3F)n2)c(F)c1` [CE-2, (S)-2-(4-(6-((4-cyano-2-fluorobenzyl)oxy)pyridin-2-yl)-2,5-difluorobenzyl)-1-(oxetan-2-ylmethyl)-1H-benzo[d]imidazole-6-carboxylic acid, reference compound], in data set [2] (single oral dose 2 mg/kg), the duration of exposure result is listed as “sustained exposures over 24 h”, the Tmax turned out to be 4 ± 2 h, the AUC(0-t) worked out at 2.81 ± 1.33 µM·h and the Cmax turned out to be 224 ± 130 nM. For the same molecule, the bioavailability in data set [2] (single oral dose 2 mg/kg) stood at 27.4%.
Consider `CC1(C)COC[C@H]1n1c(Cc2cc(F)c(-c3cccc(OCc4ccc(Cl)cc4F)n3)cc2F)nc2ccc(C(=O)O)cc21` [Example 115], for which the midpoint of the response in data set [1], the EC50, lay at 122 pM. Besides, in data set [2] (single oral dose 2 mg/kg), the time of peak concentration (Tmax) was determined as 2.7 ± 1.2 h, the AUC(0-t) amounted to 17.9 ± 2.04 µM·h, the Cmax was determined as 1540 ± 166 nM and the bioavailability came out at 42 ± 16.5%.
The like results for `CC1(C)COC[C@H]1n1c(Cc2cc(F)c(-c3ccnc(OCc4ccc(Cl)cc4F)n3)cc2F)nc2c(F)cc(C(=O)O)cc21` [Example 117, (S)-2-(4-(2-((4-chloro-2-fluorobenzyl)oxy)pyrimidin-4-yl)-2,5-difluorobenzyl)-1-(4,4-dimethyltetrahydrofuran-3-yl)-4-fluoro-1H-benzo[d]imidazole-6-carboxylic Acid] were, in that order, 44 pM, 4.7 ± 2.3 h, 12.8 ± 4.01 µM·h, 1600 ± 832 nM and 52.2 ± 16.3%.
Molecule `CC1(C)COC[C@H]1n1c(Cc2cc(F)c(-c3cccc(OCc4ccc(-n5ccnn5)cc4)n3)cc2F)nc2c(F)cc(C(=O)O)cc21` [Example 186, (S)-2-(4-(6-((4-(1H-1,2,3-triazol-1-yl)benzyl)oxy)pyridin-2-yl)-2,5-difluorobenzyl)-1-(4,4-dimethyltetrahydrofuran-3-yl)-4-fluoro-1H-benzo[d]imidazole-6-carboxylic acid] yielded an EC50 in data set [1] of 18 pM.
Same read-out and setting: to `CC1(C)COC[C@H]1n1c(Cc2c(F)cc(-c3nc(OCc4ccc(C#N)cc4)c(F)cc3F)cc2F)nc2ccc(C(=O)O)cc21` [Example 151, (S)-2-(4-(6-((4-cyanobenzyl)oxy)-3,5-difluoropyridin-2-yl)-2,6-difluorobenzyl)-1-(4,4-dimethyltetrahydrofuran-3-yl)-1H-benzo[d]imidazole-6-carboxylic Acid] belongs 234 pM.
As to `CC1(C)COC[C@H]1n1c(Cc2cc(F)c(-c3cccc(OCc4ccc5c(c4)CN(S(C)(=O)=O)C5)n3)cc2F)nc2ccc(C(=O)O)cc21` [Example 248, (S)-2-(2,5-difluoro-4-(6-((2-(methylsulfonyl)isoindolin-5-yl)methoxy)pyridin-2-yl)benzyl)-1-(4,4-dimethyltetrahydrofuran-3-yl)-1H-benzo[d]imidazole-6-carboxylic acid], the concentration for a half-maximal effect (EC50) in data set [1] worked out at 186 pM.
The same measure, in the same setting: to `CC1(C)COC[C@H]1n1c(Cc2cc(F)c(-c3cccc(OCc4ccc(C(F)F)cc4F)n3)cc2F)nc2c(F)cc(C(=O)O)cc21` (single isomer, unassigned) [Example 502A] belongs 281 pM.
The same measure, in the same setting: to `CCO[C@H]1COC[C@H]1n1c(Cc2cc(F)c(-c3cccc(OCc4ccc(Cl)cc4F)n3)cc2F)nc2ccc(C(=O)O)cc21` [Example 571, 2-(4-(6-((4-chloro-2-fluorobenzyl)oxy)pyridin-2-yl)-2,5-difluorobenzyl)-1-((3R,4R)-4-ethoxytetrahydrofuran-3-yl)-1H-benzo[d]imidazole-6-carboxylic acid] belongs 1270 pM.
The same measure, in the same setting: as for `CC1(C)COC[C@H]1n1c(Cc2cc(F)c(-c3ccnc(OCc4ccc(C#N)cc4)n3)cc2F)nc2ccc(C(=O)O)cc21` [Example 193, (S)-2-(4-(2-((4-cyanobenzyl)oxy)pyrimidin-4-yl)-2,5-difluorobenzyl)-1-(4,4-dimethyltetrahydrofuran-3-yl)-1H-benzo[d]imidazole-6-carboxylic acid], the figure is 132 pM; as for `CC1(C)COC[C@H]1n1c(Cc2c(F)cc(-c3ccc(F)c(OCc4ccc(C#N)cc4F)n3)c(F)c2F)nc2ccc(C(=O)O)cc21` [Example 482, (S)-2-(4-(6-((4-cyano-2-fluorobenzyl)oxy)-5-fluoropyridin-2-yl)-2,3,6-trifluorobenzyl)-1-(4,4-dimethyltetrahydrofuran-3-yl)-1H-benzo[d]imidazole-6-carboxylic acid], 11 pM.
Turning to `COC[C@H]1COC[C@H]1n1c(Cc2cc(F)c(-c3cccc(OCc4ccc(C#N)cc4)n3)cc2F)nc2ccc(C(=O)O)cc21` [Example 468, 2-(4-(6-((4-cyanobenzyl)oxy)pyridin-2-yl)-2,5-difluorobenzyl)-1-((3S,4S)-4-(methoxymethyl)tetrahydrofuran-3-yl)-1H-benzo[d]imidazole-6-carboxylic acid], a half-maximal response in data set [1] (EC50) required 118 pM.
Molecule `Cn1cc(-c2ccc(COc3cccc(-c4cc(F)c(Cc5nc6ccc(C(=O)O)cc6n5[C@@H]5COCC5(C)C)cc4F)n3)c(F)c2)cn1` [Example 535, (S)-2-(2,5-difluoro-4-(6-((2-fluoro-4-(1-methyl-1H-pyrazol-4-yl)benzyl)oxy)pyridin-2-yl)benzyl)-1-(4,4-dimethyltetrahydrofuran-3-yl)-1H-benzo[d]imidazole-6-carboxylic acid] returned an EC50 in data set [1] of 99 pM.
The same measure, in the same setting: to `CC1(C)COC[C@H]1n1c(Cc2cc(F)c(-c3ccc(F)c(OCc4cc(F)c(C#N)cc4F)n3)cc2F)nc2ccc(C(=O)O)cc21` [Example 491, (S)-2-(4-(6-((4-cyano-2,5-difluorobenzyl)oxy)-5-fluoropyridin-2-yl)-2,5-difluorobenzyl)-1-(4,4-dimethyltetrahydrofuran-3-yl)-1H-benzo[d]imidazole-6-carboxylic acid] belongs 79 pM.

The term EC50 denotes the concentration needed to bring the measured effect to its halfway point. What is called Tmax is the time from dosing to the highest level. Broadly, the Cmax is the highest concentration seen after dosing. What is called bioavailability is the share of a dose that reaches the circulation, judged against a reference dose that is usually intravenous.

Values taken from patent publication US12570642B2, “GLP-IR modulating compounds” (Gilead Sciences, Inc., priority 2021, dated 2026).
